This is an account of results in patent publication US20100063112A1, “POLYMORPH III OF 4-[4-(AMINO)-3-FLUOROPHENOXY]-N-METHYLPYRIDINE-2-CARBOXAMIDE” (BAYER SCHERING PHARMA AKTIENGESELLSCHAFT, priority 2006, published 2010).

This data set is described as follows: solubility in water and in organic solvents. It is filed as physicochemical.

For the molecule `CNC(=O)c1cc(Oc2ccc(NC(=O)Nc3ccc(Cl)c(C(F)(F)F)c3)c(F)c2)ccn1` [polymorph III, 4-[4-({[4-chloro-3-(trifluoromethyl)phenyl]carbamoyl}amino)-3-fluorophenoxy]-N-methylpyridine-2-carboxamide in the polymorph III], the “solubility in organic solvents” value (organic solvents) is on record as “high”. In addition, the solubility in water result (water) is “high”.
